Measured values as given in patent publication US10206907B2, “Compounds useful for the treatment of degenerative and inflammatory diseases” (GALAPAGOS NV, priority 2008, dated 2019).

Tests used:
[1] = target: Recombinant human JAK2 catalytic domain (Homo sapiens (Human), UniProt O60674); test: JAK2 inhibition assay; format: biochemical; settings: semi-quantitative score
In short: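 Radiometric kinase reactions ran for 90 min at 30 °C and were stopped with phosphoric acid, then washed and counted by scintillation. Percent inhibition was set relative to vehicle and to 10 μM staurosporine background. IC50 was derived from dose-dilution series.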

[2] = target: Recombinant human JAK3 catalytic domain (Homo sapiens (Human), UniProt P52333); test: JAK3 inhibition assay; format: biochemical; settings: semi-quantitative score
Sequence of Recombinant human JAK3 catalytic domain (P52333 781-1124): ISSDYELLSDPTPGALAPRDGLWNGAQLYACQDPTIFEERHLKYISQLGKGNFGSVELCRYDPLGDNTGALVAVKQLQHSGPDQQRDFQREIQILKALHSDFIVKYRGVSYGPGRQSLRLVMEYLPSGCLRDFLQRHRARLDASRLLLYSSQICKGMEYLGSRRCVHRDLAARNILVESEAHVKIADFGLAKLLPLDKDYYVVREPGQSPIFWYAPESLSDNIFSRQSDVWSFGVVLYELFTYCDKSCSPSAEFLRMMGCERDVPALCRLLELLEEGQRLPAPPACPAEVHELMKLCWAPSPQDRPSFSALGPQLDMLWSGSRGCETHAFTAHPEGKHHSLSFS
Protocol: Plates were washed 6 times with 300 μL per well of a 75 mM phosphoric acid solution and the bottom of the plates was sealed. 40 μL/well of Microscint-20 was added, the top of the plates was sealed and readout was performed using the Topcount (Perkin Elmer). Kinase activity was calculated by subtracting counts per minute (cpm) obtained in the presence of a positive control inhibitor (10 μM staurosporine) from cpm obtained in the presence of vehicle. The ability of a test compound to inhibit this activity was determined as: Percentage inhibition=((cpm determined for sample with test compound present−cpm determined for sample with positive control inhibitor) divided by (cpm determined in the presence of vehicle−cpm determined for sample with positive control inhibitor))*100%.
Dose dilution series were prepared for the compounds enabling the testing of dose-response effects in the JAK3 assay and the calculation of the IC50 for each compound.

[3] = target: Recombinant human JAK1 catalytic domain (Homo sapiens (Human), UniProt P23458); test: JAK1 inhibition assay; format: biochemical; settings: semi-quantitative score
Sequence of Recombinant human JAK1 catalytic domain (P23458 850-1154): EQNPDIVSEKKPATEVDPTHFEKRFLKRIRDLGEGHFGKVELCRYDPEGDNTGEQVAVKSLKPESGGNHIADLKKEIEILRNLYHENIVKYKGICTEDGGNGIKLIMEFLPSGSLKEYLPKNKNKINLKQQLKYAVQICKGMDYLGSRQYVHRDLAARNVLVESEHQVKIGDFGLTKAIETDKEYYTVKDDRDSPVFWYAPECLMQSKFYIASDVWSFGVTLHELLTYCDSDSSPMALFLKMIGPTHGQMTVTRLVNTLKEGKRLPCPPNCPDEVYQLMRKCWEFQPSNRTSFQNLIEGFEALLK
In short: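 Radiometric assay read by scintillation counting after phosphoric-acid washes. Percent inhibition calculated from cpm relative to vehicle and 10 μM staurosporine control. IC50 derived from compound dose-dilution series.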

[4] = Microsomal stability, rat liver microsomes; format: in vitro ADME; settings: percentage of compound remaining after 60 minutes, 3 μM compound
In short: (§1)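 Compound was incubated with liver microsomes plus an NADP+/glucose-6-phosphate/G6PDH/MgCl2 regenerating system at 37°C for 1 h. Reactions were stopped 1:1 with MeOH or ACN and analysed by LCMS.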

[5] = Microsomal stability, human liver microsomes; format: in vitro ADME; settings: percentage of compound remaining after 60 minutes, 3 μM compound
In short: as §1

[6] = test system: JAK-STAT signalling in HeLa cells; test: JAK-STAT signalling assay (OSM-triggered pSTAT1(2)-luciferase reporter in HeLa cells); format: cell-based; settings: Homo sapiens; HeLa cells, OSM-triggered pSTAT1(2)-luciferase reporter; read-out: STAT signalling EC50
In short: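 HeLa cells transiently transfected with pSTAT1(2)-luciferase reporter plus LacZ internal control, incubated overnight at 37 °C, 10% CO2, then OSM-stimulated with compound. Luciferase read by Steadylite luminescence and normalised to β-galactosidase (ONPG); percent inhibition from controls, EC50 from dose-response.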

MMP13 in SW1353 cells = test: OSM/IL-1β signaling assay (MMP13 levels in SW1353 cells); format: cell-based; settings: Homo sapiens; SW1353 cells, OSM and IL-1β triggered, MMP13 levels 48 hours after triggering; read-out: MMP13 EC50;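 further: secreted MMP13 captured by antibody, activated with APMA and its activity read by fluorescence, inhibition scaled between vehicle-treated triggered wells (0%) and untriggered wells (100%)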
[7] = Caco2 permeability (bi-directional); format: in vitro ADME, human; settings: human, pH 7.4; for Papp A→B at 1 h, 10 µM: Caco-2, apical to basolateral, read-out: Papp (A2B); for efflux ratio at 1 h, 10 µM: Caco-2, ratio of PappB>A/PappA>B
Protocol: Bi-directional Caco-2 assays were performed as described below.
2×10^5 cells/well were seeded in plating medium consisting of DMEM+GlutaMAXI+1% NEAA+10% FBS (FetalClone II)+1% Pen/Strep. The medium was changed every 2-3 days.
50 μM Lucifer Yellow (Sigma) was added to the donor buffer in all wells to assess integrity of the cell layers by monitoring Lucifer Yellow permeation. As Lucifer Yellow (LY) cannot freely permeate lipophilic barriers, a high degree of LY transport indicates poor integrity of the cell layer.
After a 1 hour incubation at 37° C. while shaking at an orbital shaker at 150 rpm, 70 μL aliquots were taken from both apical (A) and basal (B) chambers and added to 100 μL1 50:50 acetonitrile:water solution containing analytical internal standard (0.5 μM carbamazepine) in a 96 well plate.
Concentrations of compound in the samples were measured by high performance liquid-chromatography/mass spectroscopy (LC-MS/MS).
The Efflux ratios, as an indication of active efflux from the apical cell surface, were calculated using the ratio of PappB>A/PappA>B.
The following assay acceptance criteria were used:
Lucifer yellow permeability: ≤100 nm/s

Sequence of Recombinant human JAK2 catalytic domain (O60674 808-1132): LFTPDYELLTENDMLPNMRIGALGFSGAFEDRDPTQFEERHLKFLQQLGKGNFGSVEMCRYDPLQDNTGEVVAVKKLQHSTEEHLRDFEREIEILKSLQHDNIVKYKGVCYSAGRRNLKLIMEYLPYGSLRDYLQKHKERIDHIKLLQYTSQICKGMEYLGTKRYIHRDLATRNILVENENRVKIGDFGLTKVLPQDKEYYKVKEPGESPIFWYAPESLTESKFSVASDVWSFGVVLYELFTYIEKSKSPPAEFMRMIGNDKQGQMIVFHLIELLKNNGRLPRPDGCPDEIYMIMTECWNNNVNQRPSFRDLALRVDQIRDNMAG

IC50 [1] [nM]	IC50 [2] [nM]	IC50 [3] [nM]	Microsomal Stability Rat (%) [4]	Microsomal Stability Human (%) [5]	EC50 [6] [nM]	EC50 (MMP13 in SW1353 cells) [nM]	Papp A→B at 1 h, 10 µM [7] [×10⁻⁶ cm/s]	efflux ratio at 1 h, 10 µM [7]	Compound
> 1000	> 1000	101 to 500							O=C(Nc1nc2cccc(-c3ccc(N4CCCCC4)nc3)n2n1)C1CC1 [Compound 3, N-(5-(6-(piperidin-1-yl)pyridin-3-yl)-[1,2,4]triazolo[1,5-a]pyridin-2-yl)cyclopropanecarboxamide]
101 to 500	> 1000	< 100	*** (*** 51-75)	**** (**** 76-100)	> 1000	> 1000			O=C(Nc1nc2cccc(-c3ccc(C(=O)N4CCCC4)cc3)n2n1)C1CC1 [Compound 19, N-(5-(4-(pyrrolidine-1-carbonyl)phenyl)-[1,2,4]triazolo[1,5-a]pyridin-2-yl)cyclopropanecarboxamide]
	> 1000	< 100	**** (**** 76-100)	* (* 0-25)	> 1000	> 1000			CN1CCN(C(=O)c2ccc(-c3cccc4nc(NC(=O)C5CC5)nn34)cc2)CC1 [Compound 71, N-(5-(4-(4-methylpiperazine-1-carbonyl)phenyl)-[1,2,4]triazolo[1,5-a]pyridin-2-yl)cyclopropanecarboxamide]
		< 100	** (** 26-50)	** (** 26-50)	> 1000	> 1000	6.9	2.5	O=C(Nc1nc2cccc(-c3ccc(C(=O)N4CCCC(C(F)(F)F)C4)cc3)n2n1)C1CC1 (stereo not drawn) [Compound 164, N-(5-(4-(3-(trifluoromethyl)piperidine-1-carbonyl)phenyl)-[1,2,4]triazol[1,5-a]pyridin-2-yl)cyclopropanecarboxamide]
		< 100	* (* 0-25)	* (* 0-25)	501 to 1000	1 to 500	6.95	2	CC1(C)CCCN(C(=O)c2ccc(-c3cccc4nc(NC(=O)C5CC5)nn34)cc2)C1 [Compound 175, N-(5-(4-(3,3-dimethylpiperidine-1-carbonyl)phenyl)-[1,2,4]triazolo[1,5-a]pyridin-2-yl)cyclopropanecarboxamide]
101 to 500		< 100	**** (**** 76-100)	**** (**** 76-100)	> 1000	> 1000	0.5	36	O=C(Nc1nc2cccc(-c3ccc(C(=O)N4CCC(O)CC4)cc3)n2n1)C1CC1 [Compound 209, Cyclopropanecarboxylic acid {5-[4-(4-hydroxy-piperidine-1-carbonyl)-phenyl]-[1,2,4]triazolo[1,5-a]pyridin-2-yl}-amide]
101 to 500		< 100	**** (**** 76-100)	**** (**** 76-100)	> 1000	1 to 500	0.45	76.2	N#CC1CCN(C(=O)c2ccc(-c3cccc4nc(NC(=O)C5CC5)nn34)cc2)CC1 [Compound 210, Cyclopropanecarboxylic acid {5-[4-(4-cyano-piperidine-1-carbonyl)-phenyl]-[1,2,4]triazolo[1,5-a]pyridin-2-yl)-amide]
		< 100	** (** 26-50)	*** (*** 51-75)	501 to 1000	> 1000	11.4	1.14	O=C(Nc1nc2cccc(-c3ccc(CN4CCCC(F)C4)cc3)n2n1)C1CC1 (stereo not drawn) [Compound 280, Cyclopropanecarboxylic acid {5-[4-(3-fluoro-piperidin-1-ylmethyl)-phenyl]-[1,2,4]triazolo[1,5-a]pyridin-2-yl}-amide]

Further lines, the compound ahead of its results:

Compound	IC50 [1] [nM]	IC50 [2] [nM]	IC50 [3] [nM]	Microsomal Stability Rat (%) [4]	Microsomal Stability Human (%) [5]	EC50 [6] [nM]	EC50 (MMP13 in SW1353 cells) [nM]	Papp A→B at 1 h, 10 µM [7] [×10⁻⁶ cm/s]	efflux ratio at 1 h, 10 µM [7]
O=C(c1ccccc1)c1ccc(-c2cccc3nc(NC(=O)C4CC4)nn23)cc1 [Compound 10, N-(5-(4-benzoylphenyl)-[1,2,4]triazolo[1,5-a]pyridin-2-yl)cyclopropanecarboxamide]	101 to 500	> 1000	< 100	** (** 26-50)	**** (**** 76-100)	> 1000	> 1000		
CC(=O)Nc1ccc(COc2ccc(-c3cccc4nc(NC(=O)C5CC5)nn34)cc2)cc1 [Compound 92, N-(5-(4-(4-acetamidobenzyloxy)phenyl)-[1,2,4]triazolo[1,5-a]pyridin-2-yl)cyclopropanecarboxamide]	101 to 500	501 to 1000	< 100	* (* 0-25)	** (** 26-50)		> 1000		
O=C(NCCc1cnn(-c2ccccc2)c1)c1ccc(-c2cccc3nc(NC(=O)C4CC4)nn23)cc1 [Compound 106, 4-(2-(cyclopropanecarboxamido)-[1,2,4]triazolo[1,5-a]pyridin-5-yl)-N-(2-(1-phenyl-1H-pyrazol-4-yl)ethyl)benzamide]			< 100	* (* 0-25)	* (* 0-25)	101 to 500	1 to 500	4.23	7.38
CC(Oc1ccc(-c2cccc3nc(NC(=O)C4CC4)nn23)cc1)c1ccccn1 (stereo not drawn) [Compound 189, N-(5-(4-(1-(pyridin-2-yl)ethoxy)phenyl)-[1,2,4]triazolo[1,5-a]pyridin-2-yl)cyclopropanecarboxamide]		501 to 1000	< 100	** (** 26-50)	** (** 26-50)	101 to 500	> 1000		
Cn1cnc(COc2ccc(-c3cccc4nc(NC(=O)C5CC5)nn34)cc2)n1 [Compound 199, Cyclopropanecarboxylic acid {5-[4-(1-methyl-1H-[1,2,4]triazol-3-ylmethoxy)-phenyl]-[1,2,4]triazolo[1,5-a]pyridin-2-yl}-amide]	101 to 500		< 100	**** (**** 76-100)	**** (**** 76-100)	> 1000	> 1000	4.53	8.83
O=C(Cc1ccc(-c2cccc3nc(NC(=O)C4CC4)nn23)cc1)Nc1cccnc1 [Compound 316, Cyclopropanecarboxylic acid {5-[4-(pyridin-3-ylcarbamoylmethyl)-phenyl)-[1,2,4]triazolo[1,5-a]pyridin-2-yl}-amide]	101 to 500		< 100	**** (**** 76-100)	*** (*** 51-75)	> 1000	> 1000	0.3	104
N#Cc1ccc(COC2CN(C(=O)c3ccc(-c4cccc5nc(NC(=O)C6CC6)nn45)cc3)C2)cc1 [Compound 325, Cyclopropanecarboxylic acid (5-{4-[3-(4-cyano-benzyloxy)-azetidine-1-carbonyl]-phenyl}-[1,2,4]triazolo[1,5-a]pyridin-2-yl)-amide]	101 to 500		< 100	*** (*** 51-75)	*** (*** 51-75)	501 to 1000	501 to 1000	3.2	
